Laboratory results from publication PMC9825998 (The Journal of Physiology, 2022).
Read-outs that look alike come from different tables or passages of the source.

Columns and labels:
[1] = biological target: T1, Kir6.2‐K39A+SUR1 (Homo sapiens, UniProt Q14654, K39A); parameters: method as in previous submission of this manuscript; settings: construct not specified further, quoted by Referee #4, ref previous submission of this manuscript; cited from earlier work
T1 construct: expressed in transfected cells; host or cells: HEK293T

[2] = biological target: T2, Kir6.2‐K39R+SUR1 (Homo sapiens, UniProt Q14654, K39R); parameters: method as in previous submission of this manuscript; settings: construct not specified further, quoted by Referee #4, ref previous submission of this manuscript; cited from earlier work
T2 construct: expressed in transfected cells; host or cells: HEK293T

[3] = biological target: T3, Kir6.2+SUR1 (Homo sapiens, UniProt Q14654); assay: Nucleotide inhibition of KATP currents in inside-out patches from HEK293T cells, Hill fit; format: biochemical
T3 construct: expressed in transfected cells; host or cells: HEK293T
Protocol: (§1) Human Kir6.2 and SUR1 were subcloned into pCGFP_EU [green fluorescent proten (GFP)‐tagged constructs] and pcDNA4/TO, respectively. Site‐directed mutagenesis and amber stop codons were introduced using the QuikChange XL system (Stratagene, San Diego, CA, USA) and verified by sequencing (DNA Sequencing and Services, Dundee, UK), as previously described (Usher et al., [2020]). HEK293T cells were grown in Dulbecco's modified Eagle's medium (DMEM; Sigma) with the addition of 10% fetal bovine serum, 100 U ml^−1 penicillin and 100 μg ml^−1 streptomycin (Thermo Fisher Scientific; Waltham, MA, USA) at 37°C, 5:95 CO2:air. Cells were seeded in T25 flasks for 24 h, before transfection with TransIT‐LT1 (Mirus Bio LLC, Madison, WI, USA). Protein expression and trafficking to the plasma membrane were optimized by including 300 μM tolbutamide in the transfection media (Yan et al., [2007]). 3‐(6‐Acetylnaphthalen‐2‐ylamino)‐2‐aminopropanoic acid (ANAP)‐tagged Kir6.2 constructs were cultured in the presence of 20 μM ANAP (free acid; AsisChem, Waltham, MA, USA), and 48 h post‐transfection the cells were re‐plated onto either poly‐D‐lysine‐coated glass‐bottomed FluoroDishes (FD35‐PDL‐100; World Precision Instruments) or poly‐L‐lysine‐coated 35 mm Petri dishes (Corning). pCDNA4/TO and pANAP were obtained from Addgene. peRF1‐E55D (Homo sapiens) and pCGFP_EU (Aequorea victoria) were kind gifts from the Chin Laboratory (MRC Laboratory of Molecular Biology, Cambridge, UK) and Gouaux Laboratory (Vollum Institute, Portland, OR, USA), respectively.
(§2) Extracellular (pipette) solutions contained (mM): 140 KCl, 1 EGTA and 10 Hepes (pH adjusted to 7.3 with KOH). The intracellular (bath) solutions contained (mM): 140 KCl, 1 EDTA, 1 EGTA, 10 Hepes (pH adjusted to 7.3 with KOH). Inside‐out patches were excised from transfected HEK293T cells using borosilicate glass pipettes (GC150F‐15; Harvard Apparatus, Holliston, MA, USA) pulled to a resistance of 1–3 MΩ. Data were acquired at a holding potential of −60 mV using an Axopatch 200B amplifier and a Digidata 1322A digitizer run through pClamp 9 software (Molecular Devices, San Jose, CA, USA).

[4] = biological target: T4, Kir6.2‐K39E+SUR1 (Homo sapiens, UniProt Q14654, K39E); assay: as above; format: biochemical
T4 construct: expressed in transfected cells; host or cells: HEK293T
Protocol: as §1, §2

[5] = biological target: T1, Kir6.2‐K39A+SUR1; assay: as above; format: biochemical
Protocol: as §1, §2

[6] = biological target: T2, Kir6.2‐K39R+SUR1; assay: as above; format: biochemical
Protocol: as §1, §2

T1 sequence (Q14654 whole entry K39A): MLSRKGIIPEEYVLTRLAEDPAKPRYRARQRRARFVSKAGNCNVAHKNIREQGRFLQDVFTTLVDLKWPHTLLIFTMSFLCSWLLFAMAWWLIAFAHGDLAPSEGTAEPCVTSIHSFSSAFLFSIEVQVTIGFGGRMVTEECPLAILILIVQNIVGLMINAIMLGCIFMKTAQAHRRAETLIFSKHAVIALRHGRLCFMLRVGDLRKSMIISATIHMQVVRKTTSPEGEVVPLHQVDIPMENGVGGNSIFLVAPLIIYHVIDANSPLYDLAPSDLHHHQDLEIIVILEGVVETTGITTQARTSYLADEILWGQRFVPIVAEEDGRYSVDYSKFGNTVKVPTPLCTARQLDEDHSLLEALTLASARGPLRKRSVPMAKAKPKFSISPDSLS
T1 sequence (Q09428 whole entry partner): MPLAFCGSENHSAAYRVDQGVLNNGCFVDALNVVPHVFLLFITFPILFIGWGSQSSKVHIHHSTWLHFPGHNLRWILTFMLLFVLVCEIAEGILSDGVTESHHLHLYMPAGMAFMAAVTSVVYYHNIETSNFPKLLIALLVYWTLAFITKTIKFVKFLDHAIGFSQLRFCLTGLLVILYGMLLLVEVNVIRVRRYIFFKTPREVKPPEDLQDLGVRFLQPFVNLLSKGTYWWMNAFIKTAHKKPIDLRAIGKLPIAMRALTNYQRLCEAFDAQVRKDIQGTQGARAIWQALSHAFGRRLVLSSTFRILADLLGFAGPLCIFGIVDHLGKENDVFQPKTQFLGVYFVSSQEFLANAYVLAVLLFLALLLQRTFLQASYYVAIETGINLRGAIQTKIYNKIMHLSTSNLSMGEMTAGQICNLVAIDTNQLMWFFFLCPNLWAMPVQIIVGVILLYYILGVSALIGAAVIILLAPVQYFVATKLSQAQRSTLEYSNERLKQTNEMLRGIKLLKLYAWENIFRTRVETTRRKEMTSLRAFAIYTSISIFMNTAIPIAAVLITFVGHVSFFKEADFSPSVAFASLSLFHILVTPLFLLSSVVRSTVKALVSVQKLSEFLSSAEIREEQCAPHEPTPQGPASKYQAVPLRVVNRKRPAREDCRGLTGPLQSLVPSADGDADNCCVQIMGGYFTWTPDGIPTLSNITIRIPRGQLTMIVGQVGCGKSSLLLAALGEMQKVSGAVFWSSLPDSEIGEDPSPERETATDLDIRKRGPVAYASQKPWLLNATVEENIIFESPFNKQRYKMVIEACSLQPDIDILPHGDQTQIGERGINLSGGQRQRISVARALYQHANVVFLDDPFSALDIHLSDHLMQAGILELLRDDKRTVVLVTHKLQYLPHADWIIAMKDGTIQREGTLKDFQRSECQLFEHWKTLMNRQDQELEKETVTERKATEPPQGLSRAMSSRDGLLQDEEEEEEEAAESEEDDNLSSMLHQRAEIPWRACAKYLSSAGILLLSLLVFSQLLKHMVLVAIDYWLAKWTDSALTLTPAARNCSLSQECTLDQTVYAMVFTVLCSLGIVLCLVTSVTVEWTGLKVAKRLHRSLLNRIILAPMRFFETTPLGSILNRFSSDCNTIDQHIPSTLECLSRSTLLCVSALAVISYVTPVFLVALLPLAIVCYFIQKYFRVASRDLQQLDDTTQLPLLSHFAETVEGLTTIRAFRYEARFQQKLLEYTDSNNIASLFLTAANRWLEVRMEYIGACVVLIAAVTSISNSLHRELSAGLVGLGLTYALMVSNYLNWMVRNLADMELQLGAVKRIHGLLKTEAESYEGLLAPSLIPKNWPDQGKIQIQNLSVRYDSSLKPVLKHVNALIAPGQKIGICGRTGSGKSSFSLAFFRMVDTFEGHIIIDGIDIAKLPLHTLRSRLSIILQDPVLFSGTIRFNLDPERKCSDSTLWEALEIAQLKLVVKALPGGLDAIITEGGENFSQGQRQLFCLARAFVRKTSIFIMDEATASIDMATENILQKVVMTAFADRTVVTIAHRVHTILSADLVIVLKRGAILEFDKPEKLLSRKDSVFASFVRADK
T2 sequence (Q14654 whole entry K39R): as the sequence (Q14654 whole entry K39A) above, with A39R counted along it
T2 sequence (Q09428 whole entry partner): as the sequence (Q09428 whole entry partner) above
T4 sequence (Q14654 whole entry K39E): as the sequence (Q14654 whole entry K39A) above, with A39E counted along it
T4 sequence (Q09428 whole entry partner): as the sequence (Q09428 whole entry partner) above
T3 sequence (Q14654 whole entry): as the sequence (Q14654 whole entry K39A) above, with A39K counted along it
T3 sequence (Q09428 whole entry partner): as the sequence (Q09428 whole entry partner) above

Nc1ncnc2c1ncn2[C@@H]1O[C@H](COP(=O)(O)OP(=O)(O)OP(=O)(O)O)[C@H]2OC3(O[C@H]21)C([N+](=O)[O-])=CC(=[N+]([O-])[O-])C=C3[N+](=O)[O-] (stereo partly drawn) [TNP‐ATP, trinitrophenyl adenosine triphosphate]
IC50 [1]: 13.2 µM
IC50 [2]: 2.62 µM
IC50 [3]: 1.08 µM
IC50 [4]: 11.8 µM
IC50 [5]: 11 µM
IC50 [6]: 2.48 µM
